Legend:
[1] = system: ulcers developed in the stomach; test: Ethanol-induced gastric ulcer in rats; assay type: in vivo, Wistar male rats; details: for ED50: Rattus norvegicus, oral administration 30 min before 1 ml ethanol (99.5%), total ulcer length after 1 h, read-out: ED50 (anti-ulcer action); for anti-ulcer action: oral, carnosic acid 1, 5, 25 mg/kg, carnosol 2.5, 10, 25 mg/kg, ethanol ulcer, FIG. 1 and 2
Procedure: To Wistar male rats (5 rats per group) of 180-200 g body weight fasted for 24 hours before the start of a test, carnosic acid obtained in Example 1 was orally administered in dose levels of 1, 5 and 25 mg per kg body weight, after suspending it in water. Similarly, carnosol obtained in Example 1 was orally administered in dose levels of 2.5, 10 and 25 mg per kg body weight, after suspending it in water. After 30 minutes of the administration, 1 ml of ethanol (99.5%) was orally administered to each rat. After one hour of the ethanol administration, laparotomy was carried out and the lengths of all ulcers developed in the stomach were measured and added up. Similar measurements were carried out on the rats of the control group which received ethanol without receiving the above compounds and the result obtained was compared with the above results.

[2] = system: ulcers developed in the stomach; details: well known anti-ulcer compound, comparison value; cited from earlier work

CC(C)c1cc2c(c(O)c1O)[C@@]1(C(=O)O)CCCC(C)(C)[C@@H]1CC2 [carnosic acid]
ED50 [1]: 3.1 mg/kg | anti-ulcer action [1]: potent anti-ulcer action

NC(N)=Nc1nc(CSCCN/C=N/S(=O)(=O)c2ccc(Br)cc2)cs1 [ebrotidine]
ED50 (anti-ulcer action), comparison compound [2]: 26.54 mg/kg

CC(C)c1cc2c(c(O)c1O)[C@@]13CCCC(C)(C)[C@@H]1C[C@@H]2OC3=O [carnosol]
ED50 [1]: 9.6 mg/kg | anti-ulcer action [1]: potent anti-ulcer action

— patent publication US6638523B1, “Method of treating ulcers” (Nagase & Company, Ltd., priority 1999, dated 2003)
